Measured values as given in patent US11266626B2, “Reduction of ER-MAM-localized APP-C99 and methods of treating alzheimer's disease” (THE TRUSTEES OF COLUMBIA UNIVERSITY IN THE CITY OF NEW YORK, priority 2015, dated 2022).
Entries after “also recorded” stand apart in the source; their conditions may differ.

Tests used:
PS-DKO cells [1] = test: Seahorse analysis of mitochondrial respiration (OCR); format: cell-based, mouse; details: BI 100 nM, myriocin 5 μM, TAPI-1 5 μM, 12-16 h, Aβ40:Aβ42 10:1, 6 ng/ml
Description: Respirometry of cultured cells was performed using the XF24e Extracellular Flux Analyzer (Seahorse Bioscience). Oxygen consumption was measured in basal conditions (Seahorse media with 25 mM glucose and 2 mM pyruvate) and after the sequential addition of 1 μM oligomycin (Complex V inhibitor), 0.75 μM FCCP (uncoupler) and 1 μM rotenone/1 μM antimycin A (Complex I and Complex III inhibitors respectively).
Respirometry of cultured cells was performed using the XF24e Extracellular Flux Analyzer (Seahorse Bioscience). Oxygen consumption was measured in basal conditions (Seahorse media with 25 mM glucose and 2 mM pyruvate) and after the sequential addition of 1 μM oligomycin (complex V inhibitor), 0.75 μM FCCP (uncoupler), and 1 μM rotenone/1 μM antimycin A (complex I and complex III inhibitors, respectively). All results were averages of five or more biological replicates. Every biological replicate consisted of three technical replicates. For every technical replicate, we plated equal number of cells (25,000 cell/well when MEFs were used, and 50,000 cells/well when human primary fibroblasts were analyzed). The number of cells was also counted after every respirometry assay to correct for cell death. All oxygen consumption (OCR) data were normalized by the number of viable cells or by protein quantity when isolated mitochondria were used.

PS-DKO cells [2] = test: Analysis of ER-mitochondrial apposition (colocalization of ER and mitochondrial markers); format: cell-based, mouse; details: 100 nM BI, 12-16 h
Description: Interactions between mitochondria and ER were performed as described (5).
Cells under were co-transfected with GFP-Sec61-β (Addgene plasmid #15108) and DsRed-Mito (Clontech, #632421) at a 1:1 ratio, using Lipofectamine 2000 (Invitrogen, #11668-027) in serum-free DMEM. Twelve hours post-transfection, cells were analyzed as described (8).
Cells under were co-transfected with GFP-Sec61-β (Addgene plasmid #15108) and DsRed2-Mito (Clontech, #632421) at a 1:1 ratio, using Lipofectamine 2000 (Invitrogen, #11668-027) in serum-free DMEM. Twelve hours post-transfection, cells were analyzed as described (Guardia-Laguarta et al., 2014).
Cells under were co-transfected with GFP-Sec61-β (Addgene plasmid #15108) and DsRed2-Mito (Clontech, #632421) at a 1:1 ratio, using Lipofectamine 2000 (Invitrogen, #11668-027) in serum-free DMEM. Twelve hours post-transfection, cells were analyzed as described (Guardia-Laguarta et al, 2014).

PS-DKO cells [3] = test: Lipidomic analyses of membranes; format: cell-based, mouse; details: for ceramide levels / sphingomyelin levels: PS-DKO cells, BI 100 nM or myriocin 5 μM
Description: (§1) Lipid extracts were prepared via chloroform-methanol extraction, spiked with appropriate internal standards, and analyzed using a 6490 Triple Quadrupole LC/MS system (Agilent Technologies, Santa Clara, Calif.) as described previously (6, 7). Glycerophospholipids and sphingolipids were separated with normal-phase HPLC using an Agilent Zorbax Rx-Sil column (inner diameter 2.1×100 mm) under the following conditions: mobile phase A (chloroform:methanol:1 M ammonium hydroxide, 89.9:10:0.1, v/v) and mobile phase B (chloroform:methanol:water:ammonium hydroxide, 55:39.9:5:0.1, v/v); 95% A for 2 min, linear gradient to 30% A over 18 min and held for 3 min, and linear gradient to 95% A over 2 min and held for 6 min. Quantification of lipid species was accomplished using multiple reaction monitoring (MRM) transitions that were developed in earlier studies (6) in conjunction with referencing of appropriate internal standards: ceramide d18:1/17:0 and sphingomyelin d18:1/12:0 (Avanti Polar Lipids, Alabaster, Ala.).
as §1, with “Lipids were extracted from equal amounts of material (30 μg protein/sample). Lipid extracts” for “Lipid extracts”, “described previously (Chan et al., 2012). Glycerophospholipids and” for “described previously (6, 7). Glycerophospholipids and”, “hydroxide, 89.9:10:0.1, v/v/v) and mobile” for “hydroxide, 89.9:10:0.1, v/v) and mobile”, “hydroxide, 55:39.9:5:0.1, v/v/v); 95% A” for “hydroxide, 55:39.9:5:0.1, v/v); 95% A”, “earlier studies (Chan et al., 2012) in conjunction” for “earlier studies (6) in conjunction”, “Alabaster, Ala.). Values are represented as mole fraction with respect to total lipid (% molarity)” for “Alabaster, Ala.).”
Lipids were extracted from equal amounts of material (30 μg protein/sample). Lipid extracts were prepared via chloroform-methanol extraction, spiked with appropriate internal standards, and analyzed using a 6490 Triple Quadrupole LC/MS system (Agilent Technologies, Santa Clara, Calif.) as described previously (Chan et al, 2012). Glycerophospholipids and sphingolipids were separated with normal-phase HPLC using an Agilent Zorbax Rx-Sil column (inner diameter 2.1×100 mm) under the following conditions: mobile phase A (chloroform:methanol:1 M ammonium hydroxide, 89.9:10:0.1, v/v/v) and mobile phase B (chloroform:methanol:water:ammonium hydroxide, 55:39.9:5:0.1, v/v/v/v); 95% A for 2 min, linear gradient to 30% A over 18 min and held for 3 min, and linear gradient to 95% A over 2 min and held for 6 min. Quantification of lipid species was accomplished using multiple reaction monitoring (MRM) transitions that were developed in earlier studies (Chan et al, 2012) in conjunction with referencing of appropriate internal standards: ceramide d18:1/17:0 and sphingomyelin d18:1/12:0 (Avanti Polar Lipids, Alabaster, Ala., USA). Values are represented as mole fraction with respect to total lipid (% molarity). For this, lipid mass (in moles) of any specific lipid is normalized by the total mass (in moles) of all the lipids measured (Chan et al, 2012). In addition, all of our results were further normalized by protein content.

SH-SY5Y cells = test: Mitochondrial content and biogenesis (VDAC western blot; qRT-PCR); format: cell-based, human

Q: What does the source list for `C[C@@H](NC(=O)c1cc(C(=O)N[C@@H](Cc2ccccc2)[C@H](O)CNC2CC2)cc(N(C)S(C)(=O)=O)c1)c1ccccc1` [BI, β-secretase inhibitor IV]?
A: mitochondrial respiration (initial oxygen consumption rate, OCR) (PS-DKO cells [1]): reversed the defect in mitochondrial respiration; also recorded: rescued the respiration defects; degree of ER-mitochondrial co-localization (apposition) (PS-DKO cells [2]): reduced the degree of ER-mitochondrial co-localization significantly; also recorded: rescued the upregulation of ER-mitochondria apposition; ceramide levels (PS-DKO cells [3]): reversing the alterations in both sphingomyelin (FIG. 46E) and ceramide; sphingomyelin levels (PS-DKO cells [3]): reversing the alterations in both sphingomyelin; ceramide levels (PS-DKO cells [3]; listed as BACE1 inhibitor): completely reversed the changes in SM and Cer levels; sphingomyelin levels (PS-DKO cells [3]; listed as BACE1 inhibitor): completely reversed the changes in SM and Cer levels; PtdSer content of membranes (PS-DKO cells [3]; PS-DKO membranes, BI): reduced the PtdSer content of PS-DKO membranes to control levels

Q: With `C[C@H](NC(=O)Cc1cc(F)cc(F)c1)C(=O)N[C@H](C(=O)OC(C)(C)C)c1ccccc1` [DAPT] as the compound, how does the “mitochondrial content or biogenesis” value (SH-SY5Y cells) read?
A: without altering mitochondrial content or biogenesis
